The target of assay [1] is Alpha-galactosidase (Coffea arabica) (UniProt Q42656). The assay is described as follows: Inhibition of coffee bean alpha-galactosidase using p-nitrophenyl glycoside as substrate assessed as release of p-nitrophenol at 1000 uM by spectrometric analysis relative to control.
The target in assay [2] is Lysosomal alpha-glucosidase (Homo sapiens, UniProt P10253). The assay is described as follows: Inhibition of human lysosome alpha-glucosidase using p-nitrophenyl glycoside as substrate assessed as release of p-nitrophenol by spectrometric analysis.
Assay [3] can be described thus: Inhibition of bovine liver beta-galactosidase using p-nitrophenyl glycoside as substrate assessed as release of p-nitrophenol by spectrometric analysis. Details: species or system Bos taurus.
Assay [4] can be described thus: Inhibition of rice alpha-glucosidase using p-nitrophenyl glycoside as substrate assessed as release of p-nitrophenol by spectrometric analysis. Details: species or system Oryza sativa.
The target of assay [5] is T1, Alpha-mannosidase (Canavalia ensiformis) (UniProt C0HJB3).
T1 sequence (whole entry): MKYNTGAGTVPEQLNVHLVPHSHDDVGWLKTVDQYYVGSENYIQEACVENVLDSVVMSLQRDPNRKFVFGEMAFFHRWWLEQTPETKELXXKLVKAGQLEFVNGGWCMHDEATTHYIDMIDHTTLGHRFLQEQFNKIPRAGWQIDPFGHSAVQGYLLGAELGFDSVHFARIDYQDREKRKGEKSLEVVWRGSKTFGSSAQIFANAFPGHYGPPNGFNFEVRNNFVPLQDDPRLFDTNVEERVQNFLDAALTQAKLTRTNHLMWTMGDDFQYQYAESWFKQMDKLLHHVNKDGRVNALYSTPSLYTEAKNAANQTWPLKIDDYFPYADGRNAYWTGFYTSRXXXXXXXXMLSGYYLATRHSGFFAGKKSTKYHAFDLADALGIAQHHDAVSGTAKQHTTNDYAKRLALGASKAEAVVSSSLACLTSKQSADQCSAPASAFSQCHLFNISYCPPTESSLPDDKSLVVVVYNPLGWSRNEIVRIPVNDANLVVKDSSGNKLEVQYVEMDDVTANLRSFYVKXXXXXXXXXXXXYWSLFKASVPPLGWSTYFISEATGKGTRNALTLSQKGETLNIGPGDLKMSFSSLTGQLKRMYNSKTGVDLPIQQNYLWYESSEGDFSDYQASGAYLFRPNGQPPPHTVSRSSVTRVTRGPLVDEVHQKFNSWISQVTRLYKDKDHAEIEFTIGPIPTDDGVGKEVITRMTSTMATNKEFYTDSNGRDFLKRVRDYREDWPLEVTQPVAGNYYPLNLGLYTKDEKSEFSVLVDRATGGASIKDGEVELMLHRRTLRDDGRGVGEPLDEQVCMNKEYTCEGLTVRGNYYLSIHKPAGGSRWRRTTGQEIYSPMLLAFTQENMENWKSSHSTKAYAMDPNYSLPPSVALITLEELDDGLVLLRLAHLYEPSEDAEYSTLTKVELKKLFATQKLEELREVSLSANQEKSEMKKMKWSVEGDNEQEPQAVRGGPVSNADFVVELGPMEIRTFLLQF
The assay is described as follows: Inhibition of jack bean alpha-mannosidase using p-nitrophenyl glycoside as substrate assessed as release of p-nitrophenol at 1000 uM by spectrometric analysis relative to control.

The next assay has as its system MKN-45. Nature of the assay: cells. The conditions noted are these: Homo sapiens, MKN-45, 48 h.
The target in assay [6] is T2, Glucosylceramidase (Bos taurus) (UniProt Q2KHZ8).
T2 sequence (whole entry): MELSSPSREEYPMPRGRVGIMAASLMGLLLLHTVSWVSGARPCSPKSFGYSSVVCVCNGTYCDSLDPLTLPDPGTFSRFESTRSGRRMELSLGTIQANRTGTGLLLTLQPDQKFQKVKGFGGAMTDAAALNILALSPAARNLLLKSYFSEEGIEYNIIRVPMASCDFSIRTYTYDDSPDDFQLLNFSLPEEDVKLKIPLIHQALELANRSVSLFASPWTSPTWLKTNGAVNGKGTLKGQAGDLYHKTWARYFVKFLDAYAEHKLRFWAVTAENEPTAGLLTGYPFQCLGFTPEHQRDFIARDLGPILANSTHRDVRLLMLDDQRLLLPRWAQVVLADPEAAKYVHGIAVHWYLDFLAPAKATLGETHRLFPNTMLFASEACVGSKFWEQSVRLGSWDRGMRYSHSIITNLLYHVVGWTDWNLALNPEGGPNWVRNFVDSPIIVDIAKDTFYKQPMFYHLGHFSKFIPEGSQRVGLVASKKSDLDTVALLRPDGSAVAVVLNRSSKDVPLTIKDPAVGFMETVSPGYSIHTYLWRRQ
Nature of the assay: Inhibition of bovine liver beta-glucosidase using p-nitrophenyl glycoside as substrate assessed as release of p-nitrophenol at 1000 uM by spectrometric analysis relative to control.

Assay [7] deals with T3, Tissue alpha-L-fucosidase (Bos taurus) (UniProt Q2KIM0).
T3 sequence (whole entry): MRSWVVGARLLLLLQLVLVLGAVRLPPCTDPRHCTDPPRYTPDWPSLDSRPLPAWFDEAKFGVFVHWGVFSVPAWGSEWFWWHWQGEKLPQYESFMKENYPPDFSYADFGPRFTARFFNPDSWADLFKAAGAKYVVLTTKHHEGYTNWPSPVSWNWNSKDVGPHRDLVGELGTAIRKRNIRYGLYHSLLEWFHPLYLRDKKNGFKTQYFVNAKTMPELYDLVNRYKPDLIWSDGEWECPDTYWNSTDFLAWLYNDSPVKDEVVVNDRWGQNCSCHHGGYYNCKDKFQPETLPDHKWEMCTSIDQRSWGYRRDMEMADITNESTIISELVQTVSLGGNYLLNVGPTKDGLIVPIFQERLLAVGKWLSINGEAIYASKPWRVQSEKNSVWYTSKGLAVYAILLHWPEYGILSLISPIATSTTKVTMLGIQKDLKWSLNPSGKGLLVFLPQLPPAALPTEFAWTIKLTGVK
Nature of the assay: Inhibition of bovine kidney alpha-L-fucosidase using p-nitrophenyl glycoside as substrate assessed as release of p-nitrophenol at 1000 uM by spectrometric analysis relative to control.

Among the data in ChEMBL document CHEMBL5579830, “Design and synthesis of 6-C-alkyl-DMDP type nanomolar inhibitors of β-galactosidase and β-glucosidase based on broussonetine S and related derivatives” (Eur J Med Chem, 2024) are inhibition, IC50 and EC50 values, retold here.

Molecules are shown by their SMILES. pEC50, pIC50: −log10 of the molar value.

Sequence of Alpha-galactosidase (Coffea arabica) (Q42656 16-378 limits assumed): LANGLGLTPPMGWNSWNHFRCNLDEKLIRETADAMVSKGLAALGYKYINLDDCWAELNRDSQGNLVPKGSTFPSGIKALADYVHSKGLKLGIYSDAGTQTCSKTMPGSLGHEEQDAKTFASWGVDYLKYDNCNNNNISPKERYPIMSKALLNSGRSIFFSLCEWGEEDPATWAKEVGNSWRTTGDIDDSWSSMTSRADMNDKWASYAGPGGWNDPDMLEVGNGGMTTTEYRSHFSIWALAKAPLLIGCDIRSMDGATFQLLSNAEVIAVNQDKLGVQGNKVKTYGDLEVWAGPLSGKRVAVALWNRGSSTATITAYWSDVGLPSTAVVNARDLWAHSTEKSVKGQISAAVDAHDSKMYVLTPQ

As for `CCCCCCC[C@H](O)[C@@H]1N[C@@H](CO)[C@H](O)[C@H]1O`, the inhibition in assay [1] came to 0%; in assay [5], 2.6%. The results for the pIC50 in assay [2], in assay [3] and in assay [4] were 5.68, 4.39 and 5.22, respectively.

`CC(=O)O[C@H]1C(=O)[C@@]2(C)[C@H]([C@H](OC(=O)c3ccccc3)[C@]3(O)C[C@H](OC(=O)[C@H](O)[C@@H](NC(=O)c4ccccc4)c4ccccc4)C(C)=C1C3(C)C)[C@]1(OC(C)=O)CO[C@@H]1C[C@@H]2O` [PACLITAXEL] showed a pEC50 in the assay on MKN-45 of 8.52.

On to `OCCC[C@H](O)CCCCCCCCC[C@@H]1N[C@@H](CO)[C@H](O)[C@H]1O`, for which the inhibition amounted to 0.3% in assay [1], 46.5% in assay [6], 0% in assay [7] and 2.2% in assay [5]. Also, the pIC50 is 4.30 in assay [3] and 5.92 in assay [4].

By inhibition is commonly meant the percentage by which the read-out fell short of the control. By pIC50 is commonly meant the negative decadic logarithm of the IC50, by convention in mol/L. Broadly, the pEC50 is −log10 of the EC50, conventionally taken in molar units.
